{"source": "patent US7183061B2", "about": "“Method of expressing Heliothis ecdysone receptor fusion protein” (Syngenta Limited, priority 1996, dated 2007)", "target": "T1, glucocorticoid/Heliothis ecdysone chimeric receptor (UniProt O18473+P04150)", "T1 sequence (P04150+O18473 with tags, fused parts or gaps)": "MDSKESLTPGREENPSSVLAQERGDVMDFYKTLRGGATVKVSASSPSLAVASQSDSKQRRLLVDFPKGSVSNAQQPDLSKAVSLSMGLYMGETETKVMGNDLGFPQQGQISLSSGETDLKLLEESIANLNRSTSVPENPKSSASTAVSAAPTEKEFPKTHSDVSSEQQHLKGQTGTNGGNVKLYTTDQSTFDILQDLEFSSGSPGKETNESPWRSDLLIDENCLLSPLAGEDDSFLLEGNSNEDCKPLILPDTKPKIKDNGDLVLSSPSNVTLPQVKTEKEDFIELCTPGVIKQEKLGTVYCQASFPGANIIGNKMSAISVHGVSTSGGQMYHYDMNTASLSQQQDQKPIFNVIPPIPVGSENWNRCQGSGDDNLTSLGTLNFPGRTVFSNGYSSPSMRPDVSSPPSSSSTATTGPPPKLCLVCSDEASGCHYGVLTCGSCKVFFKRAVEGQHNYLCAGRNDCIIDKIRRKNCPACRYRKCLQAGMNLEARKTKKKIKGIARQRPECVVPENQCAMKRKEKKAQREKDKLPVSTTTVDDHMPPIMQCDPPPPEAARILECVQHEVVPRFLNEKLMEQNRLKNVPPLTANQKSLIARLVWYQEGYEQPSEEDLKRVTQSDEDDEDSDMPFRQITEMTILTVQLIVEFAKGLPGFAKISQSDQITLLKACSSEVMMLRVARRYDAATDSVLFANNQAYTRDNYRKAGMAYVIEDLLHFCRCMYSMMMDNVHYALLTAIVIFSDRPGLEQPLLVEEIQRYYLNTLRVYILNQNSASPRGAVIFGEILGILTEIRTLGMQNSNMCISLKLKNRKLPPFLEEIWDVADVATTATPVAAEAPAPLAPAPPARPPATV", "assay": "CHO cells transfected with pcDNA3GRHEcR and pSWGRE4 (β-galactosidase reporter)", "assay_type": "cell-based, Heliothis virescens", "design": "expressed in transfected cells; host or cells: CHO-K1 (A7)", "conditions": "co-transformed CHO cells (FIG. 27)", "description": "Transfections of mammalian cell lines (CHO-K1 Chinese hamster ovary) ATCC number CCL61 or cos-1 (Monkey cell line) were performed using either calcium phosphate precipitation (Gorman, Chapter 6 of “DNA cloning: a practical approach. Vol 2 D. M. Glover ed/.(1985) IRL Press, Oxford) or using LipofectAMINE (Gibco BRL Cat. No. 18324–012, following manufacturer's instructions). […] 293 cells were transfected using analogous methods.\nThe mammalian expression vector used in this experiment was pcDNA3 (Invitrogen). The GRHEcR 2.7 kb BamHI DNA fragment (isolated from pMF6GRHEcR) was introduced into the pcDNA3 BamHI vector. The recombinants were oriented by restriction enzyme mapping. The DNA sequence of the junctions was determined to ensure correct orientation and insertion (pcDNA3GRHEcR, FIG. 25).\nThe reporter plasmid for mammalian cell system was produced by taking pSWBGAL plasmid and replacing the CRESW SpeI/ClaI fragment for a synthetic 105 bp DNA fragment containing 4 copies of the glucocorticoid response element (GRE) and flanked by SpeI at the 5′ end and AflII at the 3′ end.\nThe two oligonucleotides were purified annealed and ligated to pSWBGAL SpeI/AflII to produce pSWGRE4 (FIG. 26).\nA screen was carried out using CHO cells transiently transfected with both pSWGRE4 (reporter) and pcDNA3GRHEcR (effector) constructs. […]"}
{"smiles": "CCc1ccc(C(=O)NN(C(=O)c2cc(C)cc(C)c2)C(C)(C)C)cc1", "note": "[RH5992, 3,5-dimethylbenzoic acid 1-1(1,1-dimethylethyl)-2(4-ethylbenzoyl)hydrazide]", "values": [{"measurement": "chemical induced reporter gene activity", "result": "significant chemical induced reporter gene activity"}]}
